US9290551B2, “Compounds for treating papilloma virus infection” (NanoVir, LLC, priority 2012, dated 2016)
pIC50: −log10 of the molar value.

Columns and labels:
Assay type in all cases: cell-based, Human papilloma virus
HPV 16 = HPV 16 episome DNA levels in W12E cells by Q-PCR (Taqman); settings: effective (pseudo) IC50; 50% reduction in HPV DNA relative to vehicle (0.1% DMSO); read-out: HPV-16 IC50
Procedure: Cells maintaining HPV 16 DNA were cultured for 72 hours in the presence of cidofovir, interferon γ or polyamide. Viral DNA was then quantified using real-time PCR and compared to vehicle (DMSO)-treated control cultures.
Compounds were initially tested for effects on HPV 16 episome DNA levels in W12E cells by Q-PCR (Taqman™) over 3 concentration ranges (0.1, 1 and 10 μM). W12E cells are a cervical keratinocyte cell line originally identified by M. Stanley (Cambridge University), and later optimized and provided by P. Lambert (U. of Wisconsin). […] In all cases (initial tests and follow-up IC50 tests), dose testing was performed in triplicate. […] Furthermore, all experiments were conducted in triplicate, multiple times. The data were then combined, pseudo or effective IC50 values calculated, and variance determined to reveal the fit of the data to the model and its reliability.
Keratinocytes that maintain HPV 16 episomes were treated with increasing concentrations of polyamides.

HPV31 = HPV31 DNA levels in keratinocytes by real-time PCR; settings: effective (pseudo) IC50
Procedure: (§1) Human keratinocytes, including those maintaining HPV episomes, are cultured on mitomycin C-treated J2 3T3 cells in media containing three parts Dulbecco's modified Eagle medium (DMEM) and one part F12 media, our modification of published methods (Rheinwald and Green, 1975). Media (E Media) is supplemented with 0.4 μg/mL hydrocortisone, 10 ng/mL cholera toxin, 5 μg/mL insulin, 24 μg/mL adenine, 5 μg/mL transferrin, […] (T3), 10 ng/mL epidermal growth factor (EGF), 1% penicillin-streptomycin, and 5% fetal bovine serum (FBS). All cells are passaged at 70% confluency at a split ratio of 1:5.
(§2) Polyamides for HPV 18 are dissolved at 10 mM in 100% DMSO and diluted with H2O to 1 mM. Polyamides are added to cells in E media at final concentrations of 0.1-10 μM, with final DMSO concentrations of 0.1%. As controls, cells are incubated with normal E media and E media containing the “vehicle” 0.1% DMSO. The HPV DNA levels are then quantified according to previously published procedures (Garner-Hamrick and Fisher, Virology, 301, 334-41, 2002). After incubation, cells are harvested from the plates by either trypsinization or direct lysis with proteinase K digestion buffer (PK buffer: 100 mM NaCl, 10 mM Tris pH 8, 25 mM EDTA, 0.5% SDS, 0.1 mg/mL proteinase K). Trypsinized cells are counted on a hemocytometer and pelleted by centrifugation. Episomal HPV is isolated by the Hirt method (Hirt, 1967) and cell pellets are lysed in 0.6% SDS with 10 mM EDTA. NaCl is next added to a final concentration of 1 M. Following an overnight incubation at 4° C., precipitates containing the chromosomal DNA are spun down and episomal DNA precipitated by the addition of isopropanol. Cells lysed directly in PK buffer are transferred to microfuge tubes and incubated at 50° C. for 2 h. Lysates are then extracted with phenol/chloroform/isoamyl alcohol and spun through a phase lock gel (Eppendorf, Hamburg, Germany). Total DNA is then precipitated with 0.3 M NaOAc and 2.5 vol. ethanol and resuspended in Tris-EDTA (TE) buffer.
HPV31 primers-probe sets for PCR were also designed within the L1 gene:
(§3) All primers and probes are synthesized and HPLC purified by Applied Biosystems (Foster City, Calif.). The HPV probes are labeled with the 5′ reporter dye FAM (6-carboxy-fluorescein) and the 3′ quencher dye TAMRA (6-carboxytetramethyl-rhodamine). A standard curve is generated using a range of 10^8 to 10 copies/reaction of cloned, genomic HPV31 or HPV18 DNA using the following formula: (1.82×10^15)(μg/μL stock DNA)/(length in base pairs)(2)=copies/μL stock DNA. PCR reactions contain final concentrations of 1× Universal Master Mix (PE Applied Biosystems), 200 nM of each primer, and 250 nM probe (PE Applied Biosystems) in a reaction volume of 25 μL. Each Hirt-isolated DNA sample is analyzed in triplicate reactions for episomal HPV. Copies/reaction are determined from the standard curve, and copies/cell determined according to the following formula: (copies/reaction)×(DNA dilution)/(total # cells)=copies/cell.

HPV18 = HPV18 DNA levels in keratinocytes by real-time PCR; settings: effective (pseudo) IC50
Procedure: as §1, §2
Viral DNA levels are next quantified according to variations on our previously published methods (Garner-Hamrick and Fisher, Virology, 301, 334-41, 2002). Quantitative PCR is performed using Real-Time PCR technology on an ABI PRISM 7700 Sequence Detector. All primers and probes were designed using Primer Express 1.0 (ABI). For HPV 18, PCR primer-probe sets were designed within the L1 gene:
as §3

CN(C)CCCNC(=O)CCNC(=O)c1cc(NC(=O)CCNC(=O)c2cc(NC(=O)c3cc(NC(=O)c4cc(NC(=O)CCNC(=O)c5cc(NC(=O)c6cc(NC(=O)[C@H](N)CCNC(=O)CCNC(=O)c7cc(NC(=O)c8cc(NC(=O)CCNC(=O)c9cc(NC(=O)c%10cc(NC(=O)c%11cc(NC(=O)c%12nccn%12C)cn%11C)cn%10C)cn9C)cn8C)cn7C)cn6C)cn5C)cn4C)cn3C)cn2C)cn1C [Polyamide 1029, ImPPPβPPβγNH2PPβPPPβPβDp]
pIC50 (HPV 16): 6.00 to 7.00 | pIC50 (HPV31): 6.00 to 7.00 | pIC50 (HPV18): ≤ 6.00

CN(CCCN)CCCNC(=O)CCNC(=O)c1cc(NC(=O)c2cc(NC(=O)c3cc(NC(=O)CCNC(=O)c4cc(NC(=O)c5cc(NC(=O)c6cc(NC(=O)CCNC(=O)c7cc(NC(=O)c8cc(NC(=O)c9cc(NC(=O)CCCNC(=O)c%10cc(NC(=O)c%11cc(NC(=O)CCNC(=O)c%12cc(NC(=O)c%13cc(NC(=O)c%14cc(NC(=O)CCNC(=O)c%15cc(NC(=O)c%16cc(NC(=O)c%17cc(NC(=O)c%18nccn%18C)cn%17C)cn%16C)cn%15C)cn%14C)cn%13C)cn%12C)cn%11C)cn%10C)cn9C)cn8C)cn7C)cn6C)cn5C)cn4C)cn3C)cn2C)cn1C [Polyamide 1048, ImPPPβPPPβPPγPPPβPPPβPPPβTa]
pIC50 (HPV 16): 6.00 to 7.00 | pIC50 (HPV31): 6.00 to 7.00 | pIC50 (HPV18): 6.00 to 7.00

CN(C)CCCNC(=O)CCNC(=O)c1cc(NC(=O)CCNC(=O)c2cc(NC(=O)c3cc(NC(=O)c4cc(NC(=O)CCNC(=O)c5cc(NC(=O)c6cc(NC(=O)CCCNC(=O)CCNC(=O)c7cc(NC(=O)c8cc(NC(=O)CCNC(=O)c9cc(NC(=O)c%10cc(NC(=O)c%11cc(NC(=O)c%12nccn%12C)cn%11C)cn%10C)cn9C)cn8C)cn7C)cn6C)cn5C)cn4C)cn3C)cn2C)cn1C [Polyamide 1022, ImPPPβPPβγPPβPPPβPβDp]
pIC50 (HPV 16): < 6.00 | pIC50 (HPV31): ≤ 6.00

CN(CCCN)CCCNC(=O)CCNC(=O)c1cc(NC(=O)CCNC(=O)c2cc(NC(=O)c3cc(NC(=O)c4cc(NC(=O)CCNC(=O)c5cc(NC(=O)c6cc(NC(=O)[C@H](N)CCNC(=O)CCNC(=O)c7cc(NC(=O)c8cc(NC(=O)CCNC(=O)c9cc(NC(=O)c%10cc(NC(=O)c%11cc(NC(=O)c%12nccn%12C)cn%11C)cn%10C)cn9C)cn8C)cn7C)cn6C)cn5C)cn4C)cn3C)cn2C)cn1C [Polyamide 1032, ImPPPβPPβγNH2PPβPPPβPβTa]
pIC50 (HPV 16): 6.00 to 7.00 | pIC50 (HPV31): 6.00 to 7.00

CN(CCCN)CCCNC(=O)CCNC(=O)c1cc(NC(=O)c2cc(NC(=O)c3cc(NC(=O)CCNC(=O)c4cc(NC(=O)c5cc(NC(=O)c6cc(NC(=O)CCNC(=O)c7cc(NC(=O)c8cc(NC(=O)CCCNC(=O)c9cc(NC(=O)c%10cc(NC(=O)CCNC(=O)c%11nc(NC(=O)c%12cc(NC(=O)c%13cc(NC(=O)CCNC(=O)c%14cc(NC(=O)c%15cc(NC(=O)c%16nccn%16C)cn%15C)cn%14C)cn%13C)cn%12C)cn%11C)cn%10C)cn9C)cn8C)cn7C)cn6C)cn5C)cn4C)cn3C)cn2C)cn1C [Polyamide 1042, ImPPβPPIβPPγPPβPPPβPPPβTa]
pIC50 (HPV31): ≥ 7.00

CN(CCCN)CCCNC(=O)CCNC(=O)CCNC(=O)c1cc(NC(=O)c2cc(NC(=O)c3cc(NC(=O)CCNC(=O)c4cc(NC(=O)c5cc(NC(=O)c6cc(NC(=O)C(N)CCNC(=O)c7cc(NC(=O)c8cc(NC(=O)c9cc(NC(=O)CCNC(=O)c%10cc(NC(=O)c%11cc(NC(=O)c%12cc(NC(=O)c%13nccn%13C)cn%12C)cn%11C)cn%10C)cn9C)cn8C)cn7C)cn6C)cn5C)cn4C)cn3C)cn2C)cn1C (centres unmarked) [Polyamide 1033, ImPPPβPPPγNH2PPPβPPPββTa]
pIC50 (HPV 16): < 6.00 | pIC50 (HPV31): ≤ 6.00

ImPPPβPPPγNH2PPPβPPPββDp [Polyamide 1026]
pIC50 (HPV 16): 6.00 to 7.00 | pIC50 (HPV31): 6.00 to 7.00

CN(C)CCCNC(=O)CCNC(=O)c1cc(NC(=O)c2cc(NC(=O)c3cc(NC(=O)c4cc(NC(=O)CCNC(=O)c5cc(NC(=O)c6cc(NC(=O)CCCNC(=O)c7cc(NC(=O)c8cc(NC(=O)c9cc(NC(=O)CCNC(=O)c%10cc(NC(=O)c%11cc(NC(=O)c%12nccn%12C)cn%11C)cn%10C)cn9C)cn8C)cn7C)cn6C)cn5C)cn4C)cn3C)cn2C)cn1C [Polyamide 1023, ImPPβPPPγPPβPPPPβDp]
pIC50 (HPV 16): < 6.00 | pIC50 (HPV31): ≤ 6.00
